Assay results: the kinase profiling compilation of Christmann-Franck et al. (2016)

Key:
Test in all cases: KINOMEscan competition binding
Conditions in all cases: compound 10.0 µM
[1] = target: MAP3K7 (human) (UniProt O43318)
[2] = target: CIT (human) (UniProt O14578)
[3] = target: MAP3K6 (human) (UniProt O95382)
[4] = target: PTK2B (human) (UniProt Q14289)
[5] = target: CDK14 (human) (UniProt O94921)
[6] = target: STK32A (human) (UniProt Q8WU08)
[7] = target: CDK15 (human) (UniProt Q96Q40)
[8] = target: EPHA5 (human) (UniProt P54756)
[9] = target: PI4KB (human) (UniProt Q9UBF8)
[10] = target: CDK18 (human) (UniProt Q07002)
[11] = target: PIK3CA (human) (UniProt P42336)
[12] = target: RPS6KA1 KD2 (human) (UniProt Q15418)
[13] = target: CSK (human) (UniProt P41240)
[14] = target: TXK (human) (UniProt P42681)
[15] = target: CDKL1 (human) (UniProt Q00532)
[16] = target: CSNK1D (human) (UniProt P48730)
[17] = target: BRSK2 (human) (UniProt Q8IWQ3)
[18] = target: ULK1 (human) (UniProt O75385)
[19] = target: MAPK13 (human) (UniProt O15264)
[20] = target: PLK3 (human) (UniProt Q9H4B4)
[21] = target: CDK16 (human) (UniProt Q00536)
[22] = target: MAK (human) (UniProt P20794)
[23] = target: TNK2 (human) (UniProt Q07912)
[24] = target: PAK6 (human) (UniProt Q9NQU5)
[25] = target: CSNK1A1 (human) (UniProt P48729)
[26] = target: MAPK14 (human) (UniProt Q16539)
[27] = target: TAOK1 (human) (UniProt Q7L7X3)
[28] = target: STK33 (human) (UniProt Q9BYT3)
[29] = target: MAPK7 (human) (UniProt Q13164)
[30] = target: TYRO3 (human) (UniProt Q06418)
[31] = target: TNNI3K (human) (UniProt Q59H18)
[32] = target: CSF1R (human) (UniProt P07333)
[33] = target: MYO3B (human) (UniProt Q8WXR4)
[34] = target: MAP2K7 (human) (UniProt O14733)
[35] = target: PIK3CB (human) (UniProt P42338)
[36] = target: MAP3K4 (human) (UniProt Q9Y6R4)
[37] = target: PTK6 (human) (UniProt Q13882)
[38] = target: ADCK3 (human) (UniProt Q8NI60)
[39] = target: PDGFRB (human) (UniProt P09619)
[40] = target: RAF1 (human) (UniProt P04049)

CSF1R (human), sequence (P07333 whole entry, looked up): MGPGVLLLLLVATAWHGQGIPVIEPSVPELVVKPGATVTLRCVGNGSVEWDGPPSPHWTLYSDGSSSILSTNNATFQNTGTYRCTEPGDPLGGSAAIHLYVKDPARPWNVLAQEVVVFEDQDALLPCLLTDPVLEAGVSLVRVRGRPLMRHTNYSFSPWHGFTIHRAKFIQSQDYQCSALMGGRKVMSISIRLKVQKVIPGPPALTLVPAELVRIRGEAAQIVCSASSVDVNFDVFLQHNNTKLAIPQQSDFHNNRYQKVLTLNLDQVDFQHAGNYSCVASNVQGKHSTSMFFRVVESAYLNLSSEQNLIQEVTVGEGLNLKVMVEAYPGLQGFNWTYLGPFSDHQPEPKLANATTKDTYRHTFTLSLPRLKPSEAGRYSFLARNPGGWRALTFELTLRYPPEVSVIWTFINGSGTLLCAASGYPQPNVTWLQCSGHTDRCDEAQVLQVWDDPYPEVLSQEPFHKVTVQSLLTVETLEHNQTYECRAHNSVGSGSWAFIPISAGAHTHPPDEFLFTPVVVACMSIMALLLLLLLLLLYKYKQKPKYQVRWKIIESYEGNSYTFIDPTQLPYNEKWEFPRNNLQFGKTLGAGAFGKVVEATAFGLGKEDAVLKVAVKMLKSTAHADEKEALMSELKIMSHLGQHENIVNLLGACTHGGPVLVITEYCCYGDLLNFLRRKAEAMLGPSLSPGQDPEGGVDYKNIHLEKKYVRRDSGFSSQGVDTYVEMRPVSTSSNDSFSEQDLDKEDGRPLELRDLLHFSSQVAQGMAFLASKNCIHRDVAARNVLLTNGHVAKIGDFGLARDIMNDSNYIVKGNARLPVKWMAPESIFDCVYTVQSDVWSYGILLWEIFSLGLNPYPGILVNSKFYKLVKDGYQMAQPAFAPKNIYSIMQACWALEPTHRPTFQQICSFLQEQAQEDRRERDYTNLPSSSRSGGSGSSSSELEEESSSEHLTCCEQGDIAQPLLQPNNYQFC
CSNK1D (human), sequence (P48730 whole entry, looked up): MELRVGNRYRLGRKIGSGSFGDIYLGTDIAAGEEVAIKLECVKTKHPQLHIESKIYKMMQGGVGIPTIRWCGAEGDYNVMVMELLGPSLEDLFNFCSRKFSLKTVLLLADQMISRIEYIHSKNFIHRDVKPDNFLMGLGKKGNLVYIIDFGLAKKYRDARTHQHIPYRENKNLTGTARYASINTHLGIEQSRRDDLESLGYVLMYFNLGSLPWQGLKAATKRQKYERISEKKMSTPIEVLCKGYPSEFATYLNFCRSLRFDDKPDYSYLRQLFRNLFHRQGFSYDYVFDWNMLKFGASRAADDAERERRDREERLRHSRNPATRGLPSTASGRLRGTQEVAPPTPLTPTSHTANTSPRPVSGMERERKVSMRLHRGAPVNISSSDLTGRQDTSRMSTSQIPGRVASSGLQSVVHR
MAPK7 (human), sequence (Q13164 whole entry, looked up): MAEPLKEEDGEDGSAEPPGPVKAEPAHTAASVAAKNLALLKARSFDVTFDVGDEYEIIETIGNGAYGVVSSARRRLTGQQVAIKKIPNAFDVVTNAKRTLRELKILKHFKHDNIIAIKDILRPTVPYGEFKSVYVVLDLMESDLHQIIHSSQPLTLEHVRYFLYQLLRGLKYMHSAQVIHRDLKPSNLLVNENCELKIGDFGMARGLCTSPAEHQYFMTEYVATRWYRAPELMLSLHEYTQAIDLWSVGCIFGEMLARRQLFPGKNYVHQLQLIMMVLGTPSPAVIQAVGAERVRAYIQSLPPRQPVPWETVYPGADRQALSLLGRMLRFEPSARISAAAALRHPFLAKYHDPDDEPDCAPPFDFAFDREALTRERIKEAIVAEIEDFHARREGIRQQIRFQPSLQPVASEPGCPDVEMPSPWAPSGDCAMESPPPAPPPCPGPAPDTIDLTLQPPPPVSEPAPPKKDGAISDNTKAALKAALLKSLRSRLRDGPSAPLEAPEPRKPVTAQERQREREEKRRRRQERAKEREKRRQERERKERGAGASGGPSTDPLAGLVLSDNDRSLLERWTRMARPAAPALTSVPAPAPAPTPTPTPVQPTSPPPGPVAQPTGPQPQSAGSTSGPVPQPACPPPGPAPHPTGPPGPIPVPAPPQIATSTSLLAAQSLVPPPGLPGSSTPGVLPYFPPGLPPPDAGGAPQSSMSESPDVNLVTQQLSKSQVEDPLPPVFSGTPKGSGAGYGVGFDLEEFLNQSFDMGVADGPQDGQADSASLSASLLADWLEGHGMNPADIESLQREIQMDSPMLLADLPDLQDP
MAK (human), sequence (P20794 whole entry, looked up): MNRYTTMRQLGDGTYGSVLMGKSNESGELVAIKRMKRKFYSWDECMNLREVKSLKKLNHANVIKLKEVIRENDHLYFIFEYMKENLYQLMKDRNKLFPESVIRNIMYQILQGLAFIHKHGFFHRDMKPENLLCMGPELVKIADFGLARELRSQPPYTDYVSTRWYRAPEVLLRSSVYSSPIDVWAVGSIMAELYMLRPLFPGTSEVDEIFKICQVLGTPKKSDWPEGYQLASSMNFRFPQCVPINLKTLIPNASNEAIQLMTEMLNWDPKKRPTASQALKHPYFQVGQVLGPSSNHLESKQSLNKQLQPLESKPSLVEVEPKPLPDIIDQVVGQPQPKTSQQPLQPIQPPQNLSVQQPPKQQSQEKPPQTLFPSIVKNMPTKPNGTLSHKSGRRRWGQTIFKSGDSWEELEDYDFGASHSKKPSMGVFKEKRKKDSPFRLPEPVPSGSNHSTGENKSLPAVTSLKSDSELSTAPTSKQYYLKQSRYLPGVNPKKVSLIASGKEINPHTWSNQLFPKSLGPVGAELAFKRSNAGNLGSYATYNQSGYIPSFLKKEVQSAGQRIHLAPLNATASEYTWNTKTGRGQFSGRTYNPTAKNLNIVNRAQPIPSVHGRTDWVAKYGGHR
CDK16 (human), sequence (Q00536 whole entry, looked up): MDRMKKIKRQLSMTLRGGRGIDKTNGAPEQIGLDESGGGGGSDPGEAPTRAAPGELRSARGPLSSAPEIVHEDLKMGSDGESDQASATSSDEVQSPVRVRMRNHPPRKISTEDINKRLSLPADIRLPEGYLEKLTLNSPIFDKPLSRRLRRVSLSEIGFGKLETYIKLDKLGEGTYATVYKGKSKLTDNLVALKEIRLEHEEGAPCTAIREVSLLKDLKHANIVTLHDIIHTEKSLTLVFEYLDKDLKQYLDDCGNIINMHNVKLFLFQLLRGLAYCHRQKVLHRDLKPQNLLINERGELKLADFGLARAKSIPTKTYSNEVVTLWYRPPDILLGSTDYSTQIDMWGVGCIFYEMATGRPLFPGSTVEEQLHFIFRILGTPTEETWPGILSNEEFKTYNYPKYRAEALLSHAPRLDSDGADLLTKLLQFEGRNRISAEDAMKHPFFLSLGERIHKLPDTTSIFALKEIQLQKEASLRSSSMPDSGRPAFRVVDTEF
RPS6KA1 KD2 (human), sequence (Q15418 whole entry, looked up): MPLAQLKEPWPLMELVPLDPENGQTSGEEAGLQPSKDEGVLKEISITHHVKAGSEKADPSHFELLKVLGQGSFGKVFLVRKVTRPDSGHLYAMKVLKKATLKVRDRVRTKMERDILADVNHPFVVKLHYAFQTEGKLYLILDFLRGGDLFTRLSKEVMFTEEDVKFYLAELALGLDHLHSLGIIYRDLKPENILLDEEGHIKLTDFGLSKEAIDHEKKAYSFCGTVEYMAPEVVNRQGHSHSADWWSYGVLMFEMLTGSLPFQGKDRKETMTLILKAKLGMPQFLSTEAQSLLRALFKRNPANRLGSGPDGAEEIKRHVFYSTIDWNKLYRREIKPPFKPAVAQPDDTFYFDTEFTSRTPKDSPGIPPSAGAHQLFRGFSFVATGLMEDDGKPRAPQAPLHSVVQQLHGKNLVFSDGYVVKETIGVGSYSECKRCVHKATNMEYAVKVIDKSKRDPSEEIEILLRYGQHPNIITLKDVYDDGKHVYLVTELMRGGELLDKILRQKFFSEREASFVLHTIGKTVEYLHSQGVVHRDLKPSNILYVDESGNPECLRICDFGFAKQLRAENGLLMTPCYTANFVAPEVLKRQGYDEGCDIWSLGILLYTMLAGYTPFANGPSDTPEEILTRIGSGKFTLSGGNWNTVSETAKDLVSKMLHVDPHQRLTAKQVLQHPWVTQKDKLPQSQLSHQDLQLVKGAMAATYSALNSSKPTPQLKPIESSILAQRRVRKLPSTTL
MAP3K7 (human), sequence (O43318 whole entry, looked up): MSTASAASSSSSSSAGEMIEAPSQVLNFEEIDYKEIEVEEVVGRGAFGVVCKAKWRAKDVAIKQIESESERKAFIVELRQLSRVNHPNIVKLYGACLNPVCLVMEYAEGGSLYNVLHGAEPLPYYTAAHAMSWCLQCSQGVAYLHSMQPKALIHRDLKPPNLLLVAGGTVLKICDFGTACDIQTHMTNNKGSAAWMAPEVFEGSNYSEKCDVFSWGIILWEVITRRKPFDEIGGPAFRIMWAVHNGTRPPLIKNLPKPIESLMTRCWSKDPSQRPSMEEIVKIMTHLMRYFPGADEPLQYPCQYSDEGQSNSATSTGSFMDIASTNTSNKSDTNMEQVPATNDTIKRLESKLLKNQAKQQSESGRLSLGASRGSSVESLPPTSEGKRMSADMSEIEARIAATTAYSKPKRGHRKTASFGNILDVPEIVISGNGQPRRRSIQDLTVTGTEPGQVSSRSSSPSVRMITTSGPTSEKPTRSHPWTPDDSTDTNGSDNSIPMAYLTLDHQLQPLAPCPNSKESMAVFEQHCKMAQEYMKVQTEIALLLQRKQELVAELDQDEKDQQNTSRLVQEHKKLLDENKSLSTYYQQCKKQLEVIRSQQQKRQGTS
CDKL1 (human), sequence (Q00532 whole entry, looked up): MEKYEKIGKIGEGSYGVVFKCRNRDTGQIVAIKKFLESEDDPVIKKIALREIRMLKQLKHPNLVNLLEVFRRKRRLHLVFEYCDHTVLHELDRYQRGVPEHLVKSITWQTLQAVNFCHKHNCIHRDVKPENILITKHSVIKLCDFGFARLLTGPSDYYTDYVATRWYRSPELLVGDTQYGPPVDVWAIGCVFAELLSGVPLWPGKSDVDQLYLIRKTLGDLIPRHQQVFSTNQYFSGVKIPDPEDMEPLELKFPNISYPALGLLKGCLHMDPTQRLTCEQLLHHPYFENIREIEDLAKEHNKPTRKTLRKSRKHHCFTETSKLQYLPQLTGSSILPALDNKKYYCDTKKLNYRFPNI

| SMILES | kinase still bound, per cent of control [1] [%] | kinase still bound, per cent of control [2] [%] | kinase still bound, per cent of control [3] [%] | kinase still bound, per cent of control [4] [%] | kinase still bound, per cent of control [5] [%] | kinase still bound, per cent of control [6] [%] | kinase still bound, per cent of control [7] [%] | kinase still bound, per cent of control [8] [%] | kinase still bound, per cent of control [9] [%] | kinase still bound, per cent of control [10] [%] | kinase still bound, per cent of control [11] [%] | kinase still bound, per cent of control [12] [%] | kinase still bound, per cent of control [13] [%] | kinase still bound, per cent of control [14] [%] | kinase still bound, per cent of control [15] [%] | kinase still bound, per cent of control [16] [%] | kinase still bound, per cent of control [17] [%] | kinase still bound, per cent of control [18] [%] | kinase still bound, per cent of control [19] [%] | kinase still bound, per cent of control [20] [%] | also measured |
| --- | --- | --- | --- | --- | --- | --- | --- | --- | --- | --- | --- | --- | --- | --- | --- | --- | --- | --- | --- | --- | --- |
| Cc1ccc(NC(=O)c2cccc(C(C)(C)C#N)c2)cc1Nc1ccc2ncn(C)c(=O)c2c1 | 17 | 0.05 | 100 | 100 | 100 | 100 | 100 | 1 | 82 | 100 | 100 | 87 | 1.2 | 5.6 | 100 | 100 | 100 | 94 | 9.6 | 100 | kinase still bound, per cent of control [21]: 100%; kinase still bound, per cent of control [22]: 100%; kinase still bound, per cent of control [23]: 100%; kinase still bound, per cent of control [24]: 84%; kinase still bound, per cent of control [25]: 100%; kinase still bound, per cent of control [26]: 0%; kinase still bound, per cent of control [27]: 91%; kinase still bound, per cent of control [28]: 99%; kinase still bound, per cent of control [29]: 100%; kinase still bound, per cent of control [30]: 100%; kinase still bound, per cent of control [31]: 15%; kinase still bound, per cent of control [32]: 0.1%; kinase still bound, per cent of control [33]: 100%; kinase still bound, per cent of control [34]: 93%; kinase still bound, per cent of control [35]: 100%; kinase still bound, per cent of control [36]: 100%; kinase still bound, per cent of control [37]: 94%; kinase still bound, per cent of control [38]: 100%; kinase still bound, per cent of control [39]: 0%; kinase still bound, per cent of control [40]: 2.3% |
| C=CC(=O)Nc1cc(NC(=O)c2ccc(C)c(NC(=O)c3ccno3)c2)cc(C(F)(F)F)c1 | 98 | 97 | 83 | 91 | 93 | 100 | 93 | 80 | 88 | 91 | 76 | 100 | 71 | 93 | 100 | 100 | 100 | 100 | 90 | 100 | kinase still bound, per cent of control [21]: 95%; kinase still bound, per cent of control [22]: 84%; kinase still bound, per cent of control [23]: 84%; kinase still bound, per cent of control [24]: 100%; kinase still bound, per cent of control [25]: 100%; kinase still bound, per cent of control [26]: 0.5%; kinase still bound, per cent of control [27]: 76%; kinase still bound, per cent of control [28]: 100%; kinase still bound, per cent of control [29]: 92%; kinase still bound, per cent of control [30]: 93%; kinase still bound, per cent of control [31]: 54%; kinase still bound, per cent of control [32]: 38%; kinase still bound, per cent of control [33]: 100%; kinase still bound, per cent of control [34]: 100%; kinase still bound, per cent of control [35]: 100%; kinase still bound, per cent of control [36]: 100%; kinase still bound, per cent of control [37]: 100%; kinase still bound, per cent of control [38]: 100%; kinase still bound, per cent of control [39]: 1.2%; kinase still bound, per cent of control [40]: 40% |
